Measured values from patent publication US20040029823A1, “Antisense oligonucleotide compositions and methods for the modulation of JNK proteins” (priority 1997, published 2004).
Strand notation (5' to 3'): a small letter for the sugar, then the base; units joined by * are phosphorothioate-linked, units joined directly phosphodiester-linked; [ ] holds rarer units or linkages, { } end groups; capitals alone tell only the bases. e = 2'-O-(2-methoxyethyl) (MOE); [5mC] = 5-methylcytosine; d = 2'-deoxy (DNA)

Key:
JNK3 mRNA = assay: Northern assay of JNK3 mRNA levels in SH-SY5Y cells; type: cell-based, human; settings: 200 nM oligonucleotide
Experimental: Northern Assays: The mRNA expression of each JNK protein was determined by using a nucleic acid probe specifically hybridizable thereto. Nucleic acid probes specific for JNK1, JNK2 and JNK3 are described in Examples 3, 4 and 5, respectively. The probes were radiolabelled by means well known in the art (see, e.g., Short Protocols in Molecular Biology, 2nd Ed., Ausubel et al., Eds., John Wiley & Sons, New York, 1992, pages 3-11 to 2-3-44 and 4-17 to 4-18; Ruth, Chapter 6 In: Methods in Molecular Biology, Vol. 26: Protocols for Oligonucleotide Conjugates, Agrawal, ed., Humana Press Inc., Totowa, N.J., 1994, pages 167-185; and Chapter 10 In: Molecular Cloning: A Laboratory Manual, 2nd Ed., Sambrook et al., Eds., pages 10.1-10.70). The blots were stripped and reprobed with a ^32P-labeled glyceraldehyde 3-phosphate dehydrogenase (G3PDH) probe (Clontech Laboratories, Inc., Palo Alto, Calif.) in order to confirm equal loading of RNA and to allow the levels of JNK transcripts to be normalized with regard to the G3PDH signals.
B. JNK3-specific probes: In initial screenings of a set of oligonucleotides derived from the JNK3 sequence for biological activity, a cDNA clone of JNK3 (Derijard et al., Cell, […], 76, 1025) was radiolabeled and used as a JNK3-specific probe in Northern blots. Alternatively, however, one or more of the oligonucleotides of Table 14 is detectably labeled and used as a JNK3-specific probe.
E. Activities of JNK3 oligonucleotides: The JNK3-specific phosphorothioate, 2′-methoxyethoxy “gapmer” oligonucleotides (Table 14) were screened for their ability to affect JNK3 mRNA levels in SH-SY5Y cells (Biedler et al., Cancer Res., 1973, 33, 2643). SH-SY5Y cells express a variety of mitogen-activated protein kinases (MAPKs; see, e.g., Cheng et al., J. Biol. Chem., 1998, 273, 14560). Cells were grown in DMEM essentially as previously described (e.g., Singleton et al., J. Biol. Chem., 1996, 271, 31791; Jalava et al., Cancer Res., 1990, 50, 3422) and treated with oligonucleotides at a concentration of 200 nM as described in Example 2. Control cultures were treated with an aliquot of LIPOFECTIN™ that contained no oligonucleotide.

rat JNK2 mRNA = assay: Northern assay of rat JNK2 (p54a) mRNA in A10 aortic smooth muscle cells; type: cell-based; parameters: inhibition of rat JNK2 mRNA levels / % INHIBITION: concentration or dose not given beside the values; settings: for % EXPRESSION JNK2 / capacity to modulate both JNK1 and JNK2 (Pan JNK): A10 cells; for capacity to modulate both JNK1 and JNK2 (Pan JNK): rat JNK1 and JNK2 mRNA
Experimental: (§1) In order to study the role of JNK proteins in animal models, oligonucleotides targeted to the genes encoding JNK1, JNK2 and JNK3 of Rattus norvegicus were prepared. These oligonucleotides are 2′-methoxyethoxy, phosphodiester/2′-hydroxyl, phosphorothioate/2′-methoxyethoxy, phosphodiester “gapmers” in which every cytosine residue is 5-methylcytosine (m5c). These antisense compounds were synthesized according to the methods of the disclosure. Certain of these oligonucleotides are additionally specifically hybridizable to JNK genes from other species as indicated herein. The oligonucleotides described in this Example were tested for their ability to modulate rat JNK mRNA levels essentially according to the methods described in the preceding Examples, with the exceptions that the cell line used was rat A10 aortic smooth muscle cells (ATCC No. ATCC CRL-1476) and the probes used were specific for rat JNK1, JNK2 or JNK3 (see infra). A10 cells were grown and treated with oligonucleotides essentially as described by (Cioffi et al. Mol. Pharmacol., 1997, 51, 383).
(§2) These antisense compounds were tested for their ability to modulate levels of p54? (JNK1) and p54a (JNK2) mRNA in A10 cells via Northern assays. Due to the high degree of sequence identity between the human and rat genes, radiolabeled human JNK1 (Example 3) and JNK2 (Example 4) cDNAs functioned as specific probes for the rat homologs.
These antisense compounds were tested for their ability to modulate levels of p54a (JNK2) mRNA in A10 cells using the radiolabeled human JNK2 cDNA as a probe as described supra. Oligonucleotides showing levels of inhibition from ≧ about 60% to about 100% of rat JNK2 mRNA levels include ISIS Nos. 18254, 18255, 18257, 18258, 18259, 18260 and 18265 (SEQ ID NOS: 125, 126, 128, 129, 130, 131 and 136, respectively). These oligonucleotides are preferred embodiments of the invention for modulating rat JNK2 expression. […] These oligonucleotides are thus more preferred embodiments of the invention for modulating rat JNK2 expression. ISIS 18259 (SEQ ID NO: 130) was chosen for use in further studies (infra).

rat JNK1 mRNA = assay: Northern assay of rat JNK1 (p54?) mRNA in A10 aortic smooth muscle cells; type: cell-based; settings: for % EXPRESSION JNK1: A10 cells; for inhibition of rat JNK1 mRNA levels: A10 cells (Table 20)
Experimental: as §1, §2

[1] = rat JNK2 mRNA, oligonucleotides targeted to rat JNK1
[2] = rat JNK1 mRNA, oligonucleotides targeted to rat JNK1

| Substance | % EXPRESSION JNK2 (rat JNK2 mRNA; [1]) [%] | % EXPRESSION JNK1 (rat JNK1 mRNA; [2]) [%] | inhibition of rat JNK1 mRNA levels (rat JNK1 mRNA) | further results |
| --- | --- | --- | --- | --- |
| 16690 (antisense TTCAACAGTTTCTTGCATAA; sugars from the 5' end e6 d8 e6, all phosphorothioate, methylation of C not given here) [compound 16690] |  |  |  | % EXPRESSION (JNK3 mRNA): 60%; % INHIBITION (JNK3 mRNA): 40% |
| 16691 (antisense CTCATCTATAGGAAACGGGT; sugars from the 5' end e6 d8 e6, all phosphorothioate, methylation of C not given here) [compound 16691] |  |  |  | % EXPRESSION (JNK3 mRNA): 66%; % INHIBITION (JNK3 mRNA): 34% |
| 16692 (antisense TGGAGGCTCATAAATACCAC; sugars from the 5' end e6 d8 e6, all phosphorothioate, methylation of C not given here) [compound 16692] |  |  |  | % EXPRESSION (JNK3 mRNA): 47% |
| 16693 (antisense TATAAGAAATGGAGGCTCAT; sugars from the 5' end e6 d8 e6, all phosphorothioate, methylation of C not given here) [compound 16693] |  |  |  | % EXPRESSION (JNK3 mRNA): 40% |
| 18259 (antisense eGe[5mC]eTe[5mC]eA*dG*dT*dG*dG*dA*d[5mC]*dA*dT*dG*dG*eAeTeGeAeG) [compound 18259] |  |  |  | % EXPRESSION JNK2 (rat JNK2 mRNA; dose response, 10 nM): 81%; % EXPRESSION JNK2 (rat JNK2 mRNA; dose response, 50 nM): 35%; % EXPRESSION JNK2 (rat JNK2 mRNA; dose response, 100 nM): 15%; % EXPRESSION JNK2 (rat JNK2 mRNA; dose response, 200 nM): 5%; % INHIBITION (rat JNK2 mRNA; rat JNK2 (p54a) mRNA in A10 cells): 85%; % EXPRESSION (rat JNK2 mRNA; rat JNK2 (p54a) mRNA in A10 cells, relative to LIPOFECTIN-only control): 15%; % EXPRESSION JNK1 (rat JNK1 mRNA; dose response, 10 nM): 95%; % EXPRESSION JNK1 (rat JNK1 mRNA; dose response, 50 nM): 101%; % EXPRESSION JNK1 (rat JNK1 mRNA; dose response, 100 nM): 94%; % EXPRESSION JNK1 (rat JNK1 mRNA; dose response, 200 nM): 89% |
| 21857 (DNA e[5mC]eAeAe[5mC]eG*dT*d[5mC]*d[5mC]*d[5mC]*dG*d[5mC]*dG*d[5mC]*dT*d[5mC]*eGeGe[5mC]e[5mC]eG; antisense) [compound 21857] | 91 | 24 |  |  |
| 21858 (DNA e[5mC]e[5mC]eTeGe[5mC]*dT*d[5mC]*dG*d[5mC]*dG*dG*d[5mC]*dT*d[5mC]*d[5mC]*eGe[5mC]eGeTeT; antisense) [compound 21858] | 89 | 8 | at least 90% |  |
| 21859 (DNA e[5mC]eTe[5mC]eAeT*dG*dA*dT*dG*dG*d[5mC]*dA*dA*dG*d[5mC]*eAeAeTeTeA) [compound 21859] | 106 | 5 | at least 90% | % EXPRESSION JNK2 (rat JNK2 mRNA; dose response, 10 nM): 101%; % EXPRESSION JNK2 (rat JNK2 mRNA; dose response, 50 nM): 98%; % EXPRESSION JNK2 (rat JNK2 mRNA; dose response, 100 nM): 99%; % EXPRESSION JNK2 (rat JNK2 mRNA; dose response, 200 nM): 101%; % EXPRESSION JNK1 (rat JNK1 mRNA; dose response, 10 nM): 74%; % EXPRESSION JNK1 (rat JNK1 mRNA; dose response, 50 nM): 25%; % EXPRESSION JNK1 (rat JNK1 mRNA; dose response, 100 nM): 11%; % EXPRESSION JNK1 (rat JNK1 mRNA; dose response, 200 nM): 8% |
| 21860 (DNA eTeGeTeTeG*dT*d[5mC]*dA*d[5mC]*dG*dT*dT*dT*dA*d[5mC]*eTeTe[5mC]eTeG; antisense) [compound 21860] | 98 | 8 | at least 90% |  |
| 21861 (DNA e[5mC]eGeGeTeA*dG*dG*d[5mC]*dT*d[5mC]*dG*d[5mC]*dT*dT*dA*eGe[5mC]eAeTeG; antisense) [compound 21861] | 13 | 6 | at least 90% | capacity to modulate both JNK1 and JNK2 (Pan JNK) (rat JNK2 mRNA): demonstrated a capacity to modulate both JNK1 and JNK2 |
| 21862 (DNA e[5mC]eTeAeGeG*dG*dA*dT*dT*dT*d[5mC]*dT*dG*dT*dG*eGeTeGeTeG; antisense) [compound 21862] | 133 | 6 | at least 90% |  |
| 21863 (DNA e[5mC]eAeGe[5mC]eA*dG*dA*dG*dT*dG*dA*dA*dG*dG*dT*eGe[5mC]eTeTeG; antisense) [compound 21863] | 107 | 24 |  |  |
| 21864 (DNA eTe[5mC]eGeTeT*d[5mC]*d[5mC]*dT*dG*d[5mC]*dA*dG*dT*d[5mC]*d[5mC]*eTeTeGe[5mC]e[5mC]; antisense) [compound 21864] | 106 | 8 | at least 90% |  |
| 21865 (DNA e[5mC]e[5mC]eAeTeT*dT*d[5mC]*dT*d[5mC]*d[5mC]*d[5mC]*dA*dT*dA*dA*eTeGe[5mC]eAe[5mC]; antisense) [compound 21865] | 50 | 5 | at least 90% |  |
| 21866 (DNA eTeGeAeAeT*dT*d[5mC]*dA*dG*dG*dA*d[5mC]*dA*dA*dG*eGeTeGeTeT; antisense) [compound 21866] | 98 | 8 | at least 90% |  |
| 21867 (DNA eAeGe[5mC]eTeT*d[5mC]*dG*dT*d[5mC]*dT*dA*d[5mC]*dG*dG*dA*eGeAeTe[5mC]e[5mC]; antisense) [compound 21867] | 21 | 5 | at least 90% | capacity to modulate both JNK1 and JNK2 (Pan JNK) (rat JNK2 mRNA): demonstrated a capacity to modulate both JNK1 and JNK2 |
| 21868 (DNA e[5mC]eAe[5mC]eTe[5mC]*d[5mC]*dT*d[5mC]*dT*dA*dT*dT*dG*dT*dG*eTeGe[5mC]eTe[5mC]; antisense) [compound 21868] | 112 | 15 |  |  |
| 21869 (DNA eGe[5mC]eTeGe[5mC]*dA*d[5mC]*d[5mC]*dT*dA*dA*dA*dG*dG*dA*eGeAe[5mC]eGeG; antisense) [compound 21869] | 93 | 30 |  |  |
| 21870 (DNA e[5mC]e[5mC]eAeGeA*dG*dT*d[5mC]*dG*dG*dA*dT*d[5mC]*dT*dG*eTeGeGeAe[5mC]; antisense) [compound 21870] | 87 | 11 |  |  |
